Structures are written as SMILES. pIC50: −log10 of the molar value.

One assay deals with T1, Met kinase domain (GST fusion protein) (Homo sapiens, UniProt P08581).
T1 construct: Purified GST fusion protein containing the Met kinase domain
T1 sequence (P08581 1078-1345 limits assumed): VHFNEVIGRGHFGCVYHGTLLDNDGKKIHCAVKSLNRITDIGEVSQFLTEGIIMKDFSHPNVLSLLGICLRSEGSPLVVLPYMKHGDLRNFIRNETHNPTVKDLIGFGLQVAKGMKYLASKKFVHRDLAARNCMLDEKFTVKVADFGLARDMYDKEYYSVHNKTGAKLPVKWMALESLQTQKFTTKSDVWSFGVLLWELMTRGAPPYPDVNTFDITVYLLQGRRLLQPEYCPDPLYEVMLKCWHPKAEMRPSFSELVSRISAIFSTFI
Description: Met transphosphorylation assay (ELISA, poly(glu-tyr) substrate).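 Note: Cell-free ELISA with plate-bound poly(Glu:Tyr 4:1) phosphorylated by GST-fused Met kinase domain plus ATP and Mn2+, phosphotyrosine detected by anti-phosphotyrosine antibody with HRP and ABTS read-out.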 To be noted: Met IC50. The class given is biochemical. On the technique in general: ELISA stands for enzyme-linked immunosorbent assay.
In the case of `N#Cc1ccccc1COc1cc(-c2ccccc2)cnc1N` [Example I-97, 2-(2-Amino-5-phenyl-pyridin-3-yloxymethyl)-benzonitrile], the pIC50 is 4.91.

Still in this assay, the particulars now being: read-out: Met IC50.
As to `Nc1ncc(-c2ccc3[nH]cc(CN4CCOCC4)c3c2)cc1OCc1c(F)ccc(F)c1Cl` [Example I-74, 3-(2-Chloro-3,6-difluoro-benzyloxy)-5-(3-morpholin-4-ylmethyl-1H-indol-5-yl)-pyridin-2-ylamine], the pIC50 was 5.85.
On the same count and under the same terms, with `Nc1ncc(-c2ccc3[nH]cc(CN4CCCC4)c3c2)cc1OCc1c(F)ccc(F)c1Cl` [Example I-75, 3-(2-Chloro-3,6-difluoro-benzyloxy)-5-(3-pyrrolidin-1-ylmethyl-1H-indol-5-yl)-pyridin-2-ylamine] the figure was 6.15; with `CCOC(=O)c1cc2cc(-c3cnc(N)c(OCc4c(Cl)cccc4Cl)c3)ccc2[nH]1` [Example I-76, 5-[6-Amino-5-(2,6-dichloro-benzyloxy)-pyridin-3-yl]-1H-indole-2-carboxylic acid ethyl ester], < 4.70; with `Nc1ncc(-c2ccc3[nH]c(C(=O)O)cc3c2)cc1OCc1c(Cl)cccc1Cl` [Example I-77, 5-[6-Amino-5-(2,6-dichloro-benzyloxy)-pyridin-3-yl]-1H-indole-2-carboxylic acid], 5.79.
The same measure, in the same setting: to `CN1CCN(C(=O)c2cc3cc(-c4cnc(N)c(OCc5c(Cl)cccc5Cl)c4)ccc3[nH]2)CC1` [Example I-78] belongs 6.74; to `CN(C)[C@@H]1CCN(C(=O)c2cc3cc(-c4cnc(N)c(OCc5c(Cl)cccc5Cl)c4)ccc3[nH]2)C1` [Example I-79, {5-[6-Amino-5-(2,6-dichloro-benzyloxy)-pyridin-3-yl]-1H-indol-2-yl}-[(3R)-3-dimethylamino-pyrrolidin-1-yl]-methanone], 6.74.
The same measure, in the same setting: with `Nc1ncc(-c2ccc3[nH]c(C(=O)N4CCC[C@@H]4CN4CCCC4)cc3c2)cc1OCc1c(Cl)cccc1Cl` [Example I-80, {5-[6-Amino-5-(2,6-dichloro-benzyloxy)-pyridin-3-yl]-1H-indol-2-yl}-[(2R)-2-pyrrolidin-1-ylmethyl-pyrrolidin-1-yl]-methanone] the figure was 7.10; with `Nc1ncc(-c2ccc3[nH]c(C(=O)NCCN4CCCC4)cc3c2)cc1OCc1c(Cl)cccc1Cl` [Example I-81, 5-[6-Amino-5-(2,6-dichloro-benzyloxy)-pyridin-3-yl]-1H-indole-2-carboxylic acid (2-pyrrolidin-1-yl-ethyl)-amide], 5.92; with `Nc1ncc(-c2ccc3[nH]c(C(=O)NCCN4CCOCC4)cc3c2)cc1OCc1c(Cl)cccc1Cl` [Example I-82, 5-[6-Amino-5-(2,6-dichloro-benzyloxy)-pyridin-3-yl]-1H-indole-2-carboxylic acid (2-morpholin-4-yl-ethyl)-amide], 5.74.
For `CC(C)(C)OC(=O)N[C@H]1CCN(C(=O)c2cc3cc(-c4cnc(N)c(OCc5c(Cl)cccc5Cl)c4)ccc3[nH]2)C1` [Example I-83, (1-{5-[6-Amino-5-(2,6-dichloro-benzyloxy)-pyridin-3-yl]-1H-indole-2-carbonyl}-- (3S)-pyrrlidin-3-yl)-carbamic acid tert-butyl ester], the pIC50 is 5.30.
The same measure, in the same setting: with `Nc1ncc(-c2ccc3[nH]c(C(=O)N4CC[C@H](N)C4)cc3c2)cc1OCc1c(Cl)cccc1Cl` [Example I-84, {5-(6-Amino-5-(2,6-dichloro-benzyloxy)-pyridin-3-yl]-1H-indol-2-yl}-[(3S)-amino-pyrrolidin-1-yl]-methanone] the figure was 6.85; with `Nc1ncc(-c2ccc3[nH]c(C(=O)NCC(O)CN4CCCC4)cc3c2)cc1OCc1c(Cl)cccc1Cl` (centres unmarked) [Example I-85, 5-[6-Amino-5-(2,6-dichloro-benzyloxy)-pyridin-3-yl]-1H-indole-2-carboxylic acid (2-hydroxy-3-pyrrolidin-1-yl-propyl)-amide], 6.15; with `Nc1ncc(-c2ccc(O)cc2)cc1OCc1ccccc1` [Example I-86, 4-(6-Amino-5-benzyloxy-pyridin-3-yl)-phenol], 5.06.
The same measure, in the same setting: with `Nc1ncc(-c2ccccc2)cc1OCc1ccc(F)cc1Cl` [Example I-89, 3-(2-Chloro-4-fluoro-benzyloxy)-5-phenyl-pyridin-2-ylamine] the figure was 4.77.
Still for that read-out and setting: with `Nc1ncc(-c2ccccc2)cc1OCc1cc(C(F)(F)F)ccc1Cl` [Example I-92, 3-(2-Chloro-5-trifluoromethyl-benzyloxy)-5-phenyl-pyridin-2-ylamine] the figure was < 4.70; with `Nc1ncc(-c2ccccc2)cc1OCc1cc(F)c(Cl)cc1Cl` [Example I-93, 3-(2,4-Dichloro-5-fluoro-benzyloxy)-5-phenyl-pyridin-2-ylamine], < 4.70.
Consider `Nc1ncc(-c2ccccc2)cc1OCc1cccc(C(F)(F)F)c1Cl` [Example I-94, 3-(2-Chloro-3-trifluoromethyl-benzyloxy)-5-phenyl-pyridin-2-ylamine], for which the pIC50 is < 4.70.
Same read-out and setting: to `Nc1ncc(-c2ccccc2)cc1OCc1c(F)ccc(F)c1Cl` [Example I-95, 3-(2 Chloro-3,6-difluoro-benzyloxy)-5-phenyl-pyridin-2-ylamine] belongs 6.19.
`Nc1ncc(-c2ccccc2)cc1OCc1ccc(Cl)c(Cl)c1` [Example I-96, 3-(3,4-Dichloro-benzyloxy)-5-phenyl-pyridin-2-ylamine]: the pIC50 is 4.79.
As for `Cc1ccc(F)c(COc2cc(-c3ccccc3)cnc2N)c1Cl` [Example I-98, 3-(2-Chloro-6-fluoro-3-methyl-benzyloxy)-5-phenyl-pyridin-2-ylamine], the pIC50 is 5.12.
Still for that read-out and setting: to `Nc1ncc(-c2ccccc2)cc1OCc1c(F)ccc(F)c1F` [Example I-99, 5-Phenyl-3-(2,3,6-trifluoro-benzyloxy)-pyridin-2-ylamine] belongs 5.41.
Consider `Nc1ncc(-c2ccccc2)cc1OCc1c(F)cccc1F` [Example I-100, 3-(2,6-Difluoro-benzyloxy)-5-phenyl-pyridin-2-ylamine], for which the negative-log IC50 (pIC50) is 5.03.
In the case of `Cc1ccc(F)c(COc2cc(-c3ccccc3)cnc2N)c1F` [Example I-101, 3-(2,6-Difluoro-3-methyl-benzyloxy)-5-phenyl-pyridin-2-ylamine], the pIC50 is 4.92.
In the case of `Nc1ncc(-c2ccccc2)cc1OCc1c(F)ccc(Cl)c1F` [Example I-102, 3-(3-Chloro-2,6-difluoro-benzyloxy)-5-phenyl-pyridin-2-ylamine], the pIC50 was 5.02.
On the same count and under the same terms, to `Nc1ncc(-c2ccccc2)cc1OCc1c(F)cccc1Cl` [Example I-103, 3-(2-Chloro-8-fluoro-benzyloxy)-5-phenyl-pyridin-2-ylamine] belongs 5.10; to `COc1ccc(COc2cc(-c3ccccc3)cnc2N)cc1F` [Example I-104, 3-(3-Fluoro-4-methoxy-benzyloxy)-5-phenyl-pyridin-2-ylamine], 4.82.
On the same count and under the same terms, to `CS(=O)(=O)Nc1cccc(COc2cc(-c3ccccc3)cnc2N)c1` [Example I-105, N-[3-(2-Amino-5-phenyl-pyridin-3-yloxymethyl)-phenyl]-methanesulfonamide] belongs < 4.70; to `Nc1ncc(-c2ccc(OCCN3CCOCC3)cc2)cc1OCc1cccc([N+](=O)[O-])c1` [Example I-106, 5-[4-(2-morpholin-4-yl-ethoxy)-phenyl]-3-(3-nitro-benzyloxy)-pyridin-2-ylamine], 4.90; to `Nc1ncc(-c2ccc(OCCN3CCOCC3)cc2)cc1OCc1cccc2ccccc12` [Example I-107, 5-[4-(2-Morpholin-4-yl-ethoxy)-phenyl]-3-(naphthalen-1-ylmethoxy)-pyridin-2-ylamine], 5.11.
On the same count and under the same terms, to `Nc1ncc(-c2ccc(OCCN3CCOCC3)cc2)cc1OCc1c(F)ccc(F)c1Cl` [Example I-108, 3-(2-Chloro-3,6-difluoro-benzyloxy)-5-[4-(2-morpholin-4-yl-ethoxy)-phenyl]-pyridin-2-ylamine] belongs 6.68.
As for `CC(C)c1ccc(NC(=O)C(Oc2cc(-c3ccc(OCCN4CCOCC4)cc3)cnc2N)c2ccccc2)cc1` (centres unmarked) [Example I-109, 2-{2-Amino-5-[4-(2-morpholin-4-yl-ethoxy)-phenyl]-pyridin-3-yloxy}-N-(4-isopropyl-phenyl)-2-phenyl-acetamide], the pIC50 is < 4.70.
Still for that read-out and setting: with `Nc1ncc(-c2ccc(OCCN3CCOCC3)cc2)cc1OCc1csc2ccc(Cl)cc12` [Example I-110, 3-(5-Chloro-benzo[b]thiophen-3-ylmethoxy)-5-[4-(2-morpholin-4-yl-ethoxy)-phenyl]-pyridin-2-ylamine] the figure was 5.62.
Still for that read-out and setting: to `Nc1ncc(-c2ccc(C(=O)N3CCC[C@@H]3CN3CCCC3)cc2)cc1OCc1ccc(F)cc1C(F)(F)F` [Example I-111, {4-[6-amino-5-(4-fluoro-2-trifluoromethyl-benzyloxy)-pyridin-3-yl]-phenyl)[(2R)-2-pyrrolidin-1-ylmethyl-pyrrolidin-1-yl]-methanone] belongs 5.82; to `Nc1ncc(-c2ccc(C(=O)N3CCC[C@@H]3CN3CCCC3)cc2)cc1OCc1c(F)cccc1C(F)(F)F` [Example I-112, {4-[6-Amino-5-(2-fluoro-2-trifluoromethyl-benzyloxy)-pyridin-3-yl]-phenyl}-[(2R)-2-pyrrolidin-1-ylmethyl-pyrrolidin-1-yl]-methanone], 6.82.
Still for that read-out and setting: with `Nc1ncc(-c2ccc(C(=O)N3CCC[C@@H]3CN3CCCC3)cc2)cc1OCc1cc(F)ccc1C(F)(F)F` [Example I-113, {4-(6-Amino-5-(5-fluoro-2-trifluoromethyl-benzyloxy)pyridin-3-yl]-phenyl}-[(2R)-2-pyrrolidin-1-ylmethyl-pyrrolidin-1-yl]-methanone] the figure was 5.90.

Still in this assay, the particulars now being: read-out: Met inhibition (printed in the Met IC50 column).
In the case of `Nc1ncc(-c2ccccc2)cc1OCc1ccccc1Cl` [Example I-90, 3-(2-Chloro-benzyloxy)-5-phenyl-pyridin-2-ylamine], the inhibition at 20 µM was 48%.
Regarding `Nc1ncc(-c2ccccc2)cc1OCc1cc(Cl)ccc1Cl` [Example I-91, 3-(2,5-Dichloro-benzyloxy)-5-phenyl-pyridin-2-ylamine], the inhibition at 20 µM was determined as 48%.

What is called pIC50 is the negative decadic logarithm of the IC50, by convention in mol/L. The term inhibition denotes the drop in the measured response relative to a control, in per cent.

Values taken from US20050009840A1 (SUGEN, INC., priority 2003, published 2005).
